Test results taken from article PMC5719074, “Electrostatic Map Of Proteasome α-Rings Encodes The Design of Allosteric Porphyrin-Based Inhibitors Able To Affect 20S Conformation By Cooperative Binding” (Scientific Reports, 2017).

Legend:
[1] = tested on: α-3ΔN mutant of yeast 20S proteasome; experiment: UV stopped-flow binding kinetics; details: simple bimolecular binding, 37 °C
Text: (§1) The analysis of kinetic progress curves, employing Eq. (S8), allows to obtain the values of k obs at different porphyrin concentrations, which can be exploited, for a classical bimolecular behavior, to obtain the association and dissociation rate constants according to Eq. (1a)1a kobs=kon⋅[Porph]+koff […]
(§2) Therefore, the classical bimolecular behavior, as from Eq. (1a), has been modified accordingly:1b kobs=(kc⋅Pc/Ptot+ko⋅Po/Ptot)⋅[Porph]+koff where k c and k o are the porphyrin binding rate constants to the 20S proteasome in the “closed” and in the “open” conformation, respectively, k off is the dissociation rate constant of the porphyrin, P c and P o are the relative percentage of the two conformations (“closed” and “open”, respectively) as a function of porphyrin concentration, as from Eqs. (S4–S7) (see SI). […]
(§3) Cooperativity for Porphyrin Binding. In the presence of (at least) two states (i.e., “open” and […]
(§4) corresponds to the population of “closed” 20S as a function of porphyrin concentration (with Kc being the porphyrin equilibrium binding constant for this conformation) and Po […]
(§5) Refers to the population of “open” 20S as a function of porphyrin concentration, Ko being the equilibrium porphyrin binding constant and L is the conformationa l equilibrium between the two states in the absence of porphyrins, as from Eq. (S6)

[2] = tested on: wild-type yeast 20S proteasome; experiment: UV stopped-flow binding kinetics; details: first cluster, 37 °C
Text: as §1, §2, §3, §4, §5

[3] = tested on: wild-type yeast 20S proteasome; experiment: Steady-state kinetic analysis (Lineweaver-Burk), Suc-LLVY-AMC; assay type: biochemical
Text: (§6) Proteasome activity assay.
(§7) Latent Core Particles (CP).
(§8) in a 384 multiwell black plate.
(§9) The IC50 is defined as the
(§10) double-reciprocal Lineweaver-Burk plot
(§11) squares. […] The goodness of fit was
(§12) [Etot ] = KI ⋅ 1 + 1 (S3a)
(§13) or an un-competitive inhibition equation:
(§14) [Etot ] = Km ⋅ 1 + KI (S3b)
(§15) or else a mixed inhibition equation: […]
(§16) different affinity for the two forms.
(§17) Cooperativity for Porphyrin Binding.
(§18) be described by Eq. (1b) 2 where Pc

[4] = tested on: α-3ΔN yeast mutant 20S; experiment: as above; assay type: biochemical; details: yeast mutant α-3ΔN (open conformation)
Text: as §6, §7, §8, §9, §10, §11, §12, §13, §14, §15, §16, §17, §18

[5] = molecular target: human 20S proteasome T-L activity; details: read-out: IC50 T-L; 2 nM 20S, 30 min at 37°C, 100 µM substrate
[6] = tested on: T1, human 20S proteasome; design: method as in PMID 22642538; details: cited from earlier work
T1 construct: purchased Boston Biochem (Cambridge, MA, USA)

[7] = molecular target: human 20S proteasome ChT-L activity; details: read-out: IC50 ChT-L; 2 nM 20S, 30 min at 37°C, 100 µM substrate
[8] = molecular target: human 20S proteasome PGPH-L activity; details: read-out: IC50 PGPH-L; 2 nM 20S, 30 min at 37°C, 100 µM substrate

| Structure (SMILES) | ko, binding rate constant [1] | L, open/closed conformational equilibrium in the absence of porphyrins [2] | kc, binding rate constant, closed conformation [2] | ko, binding rate constant, open conformation [2] | inhibition mechanism [3] | inhibition mechanism [4] | IC50 [5] | inhibition mechanism [6] | IC50 [7] | IC50 [8] |
| --- | --- | --- | --- | --- | --- | --- | --- | --- | --- | --- |
| C[n+]1ccc(-c2ccc(-c3c4nc(c(-c5ccc(-c6cc[n+](C)cc6)cc5)c5ccc([nH]5)c(-c5ccc(-c6cc[n+](C)cc6)cc5)c5nc(c(-c6ccc(-c7cc[n+](C)cc7)cc6)c6ccc3[nH]6)C=C5)C=C4)cc2)cc1 [compound 2, meso-tetrakis(4-N-methylphenylpyridyl)-porphyrin] | 2.5e+06 M⁻¹ s⁻¹ | 4.0 × 10^−6 | 130 M⁻¹ s⁻¹ | 7e+06 M⁻¹ s⁻¹ | almost pure non-competitive | competitive inhibitor |  |  |  |  |
| C[n+]1ccc(-c2c3nc(c(-c4cc[n+](C)cc4)c4ccc([nH]4)c(-c4cc[n+](C)cc4)c4nc(c(-c5cc[n+](C)cc5)c5ccc2[nH]5)C=C4)C=C3)cc1 [compound 1, meso-tetrakis(4-N-methylpyridyl) porphyrin] |  |  |  |  |  |  | 640 nM | competitive and reversible inhibitor | 393 nM | 140 nM |
